The test system of series [1] is spastic ABH mice with EAE. Description: Spasticity: resistance to hindlimb flexion against a strain gauge.
The subject of a further series is rat mesenteric artery. Description: Methoxamine‐evoked contraction of rat mesenteric artery. It counts as cell-based. The settings on record: 50 nM blocker pretreatment. The method, then: Vessels were equilibrated and set to a basal tension of 2 to 2.5 mN. The integrity of the endothelium was assessed by pre‐contracting the vessel with 10 μM methoxamine (an α1‐adrenoceptor agonist), followed by relaxation with 10 μM carbachol (a muscarinic acetylcholine receptor agonist); vessels showing relaxations of greater than 90% were designated as endothelium‐intact. When the endothelium was not required, it was removed by rubbing the intima with a human hair; carbachol‐induced relaxation of less than 10% indicated successful removal. After the test for endothelial integrity, vessels were left for 30 min and then pre‐contracted with 10 μM methoxamine. This was followed by construction of a cumulative concentration–relaxation curve to VSN16R (10 nM–1 μM). […] Most experiments were performed in matched vessels; effects of blockers or endothelial removal were compared with the control responses obtained in separate vessels of the same rats. All relaxant responses are expressed as percentage relaxation of the tone induced by methoxamine. Values are given as mean ± SEM. Statistical comparisons of concentration‐dependent responses were made by two‐way ANOVA using Prism 4 (GraphPad Software, Inc, San Diego, CA, USA).

Series [2] has as its system ABH mice. Description: Temperature testing (hypothermia). It counts as in vivo, mouse. The conditions noted are these: for Temperature loss: 10 mg·kg^−1 i.v. The method, then: These recordings were assessed 20 min following administration of compounds. Results are expressed as mean ± SEM, and were analysed by Student's t‐test or a one‐way ANOVA with Bonferroni post hoc test using Sigma/StatV3/Sigmpaplot V9 or V11 software (Pryce et al., 2014).

Series [3] deals with ABH mice. Description: Open‐field activity monitoring (hypomotility). It counts as in vivo, mouse. How it is done:
Motor activity was assessed using 27.9 × 27.9 cm open field activity monitor chambers and computer software (Med Associates Inc, St. Albans, VT, USA.). This was typically performed in a darkened room. Recordings were initiated once the mouse entered the chamber and continued for 5 min. These chambers, allowing four simultaneous recordings of individual mice and were fitted with infrared beams that could detect movement in the X, Y planes. The total distance travelled (cm) was recorded. Results are expressed as mean ± SEM. These were analysed by Student's paired t‐test or a one‐way ANOVA with Bonferroni post hoc test, using SigmaStat V3/Sigmaplot V9 or V11 software (Systat Ltd Hounslow, UK. Al‐Izki et al., 2012).

A further series has as its system mouse vas deferens. Description: Electrically‐evoked contraction of the mouse vas deferens. It counts as cell-based. The settings on record: Mus musculus; read-out: EC50, inhibition of electrically‐evoked contraction. How it is done:
Vasa deferentia were obtained from outbred MF‐1 mice and mounted vertically in a 4 mL organ bath at an initial tension of 0.5 g. The baths contained Mg^2+‐free Krebs solution (NaCl 118.2 mM, KCl 4.75 mM, KH2PO4 1.19 mM, NaHCO3 25.0 mM, glucose 11.0 mM and CaCl2·6H2O 2.54 mM), which was kept at 35–36°C and bubbled with 95% O2 and 5% CO2. […] Contractions were monitored by a computer using a data recording and analysis system as described previously (Ross et al., 2001). After placement in an organ bath, each tissue was subjected to a stimulation‐free period of 10 min and then stimulated for 10 min. Tissues were then subjected to alternate periods of stimulation (5 min) and rest (10 min) until consistent twitch amplitudes were obtained. This equilibration procedure was followed by a stimulation‐free period of 25 min. Tissues were then stimulated for 5 min after which the first agonist addition was made and stimulation continued until the end of the experiment.

In a further series the target is T1, BKCa channel (Homo sapiens, UniProt Q12791+Q86W47).
T1 construct: host or cells: EA.hy926 endothelial cells
Description: Single‐channel inside‐out patch clamp, EA.hy926 cells. It counts as cell-based. The settings on record: 3 μM, inner surface of membrane, 40 mV, 0.3 μM free Ca^2+. How it is done:
The human EA.hy926 endothelial cells (ATCC, Manassas, USA) were grown in DMEM containing 10% FCS and 1% HAT (5 mM hypoxanthine, 20 μM aminopterin and 0.8 mM thymidine) and were maintained in an incubator at 37°C in 5% CO2 atmosphere (Bondarenko et al., 2013). Human HNC‐2 neuronal cells were obtained from ATCC. For experiments, cells were plated on glass coverslips. Single‐channel recordings were obtained from excised inside‐out membrane patches in symmetrical solutions using the patch‐clamp technique. All patch‐clamp experiments were performed at room temperature with the use of a water hydraulic micromanipulator (WR‐6, Narishige, Japan). […] The pipettes were filled with 140 mM KCl, 10 mM HEPES, 1 mM MgCl2, 5 mM EGTA and […] CaCl2 buffered to pH 7.2 by adding KOH. Cells were super‐perfused with a bath solution containing 140 mM NaCl, 5 mM KCl, 1.2 mM MgCl2, 10 mM HEPES, 10 mM glucose and 2.4 mM CaCl2. Following gigaseal formation, bath solution was switched to the following: 140 mM KCl, 10 mM HEPES, 1 mM MgCl2, 5 mM EGTA and a designated free Ca^2+ concentration, which was adjusted by adding different amounts of CaCl2 buffered to pH 7.2. (Bondarenko et al., 2011; Bondarenko et al., 2013). Single‐channel activity was expressed as NPo, where N represents the number of functional ion channels in the membrane patch and Po represents the open channel probability determined from idealized traces (Bondarenko et al., 2011). NPo was obtained from ≥20 s of continuous recording under each experimental condition. The effect of VSN16R was estimated after 3 min of continuous exposure to VSN16R‐containing solution. Data were analysed by ANOVA, and statistical significance was evaluated using Scheffés post hoc test of the Prism 5 software for Windows (GraphPad Software).

Series [4] can be described thus: Plasma, brain and spinal cord levels in ABH mice with spastic EAE. It counts as in vivo, mouse. The settings on record: after 5 mg·kg^−1 p.o. VSN16R, ABH mice with spastic EAE. The method, then: The stability of compounds when subjected to hepatic and plasma degradation was assessed in vitro by Inpharmatica, Cambridge, UK. Compounds (1 μM) were incubated with either pooled mouse liver microsomes (0.1 mg protein mL^−1) or pooled mouse plasma at 37°C for 0, 5, 10, 20 and 40 min before termination with acetonitrile containing warfarin as an analytical internal standard. Samples were centrifuged, and the resultant supernatant analysed for parent compound. The mass responses at baseline were taken as the 100% reference values against which the disappearance of the compound was measured. The natural log of the % remaining values was used to generate linear plots of disappearance of the compounds. Half‐life values were calculated from the slope of these plots. Hepatocyte metabolism was assessed by Cyprotex, Macclesfield, and 10 μM VSN16R was incubated with primary mouse, rat, monkey (Macaque) and human hepatocytes for 1 h, and the presence of metabolites was assessed using liquid […] mass spectroscopy. The stability of VSN16R was assessed in vivo by Inpharmatica, Cyprotex and Charles Rivers, Cambridge. Blood (plasma) samples were obtained prior to and 5 min to 24 h after drug administration of 2–5 mg·kg^−1 i.v. or 5 mg·kg^−1 p.o. VSN16R into outbred mice and rats (n = 3 per time point). In addition, plasma, brain and spinal cord samples were obtained from ABH with spastic EAE. Immediately after blood collection, the brain and spinal cord were removed and then stored at −20°C prior to assay. Tissue samples were weighed, homogenized and centrifuged, and the lysates generated. Brain lysates and plasma were assayed by LC–MS methods by Inpharmatica/Charles Rivers, Cambridge, UK. This was also performed using a Waters Xevo TQ or API4000, AB Sciex mass spectrometer using spiked samples as standards. PK Solutions Software (Summit Research Services, Montrose, CO, USA), AB Sciex Analyst software combined with Thermo Fisher Scientific Watson LIMS processing and reporting software or WinNonLin pharmacokinetic or PK solutions 2.0 software (Summit Research Services, Montrose CO, USA) were used to produce PK parameters. Data are expressed as mean ± SEM. The detection limit of VSN16R was 2 ng·mL^−1 in plasma and brain and 14 ng·mL^−1 in spinal cords. The detection limit of VSN22R was 2 ng·mL^−1 in plasma and 0.1 ng·mL^−1 for VSN44R in plasma. Pharmacokinetics in toxicological samples in rats (n = 6 per group), dogs (n = 6 per group) and humans (n = 6 per group) were performed by Charles Rivers (Edinburgh, UK).

[5] abbreviates: i.p., 40 mg·kg^−1 BMS‐204352, 20 mg·kg^−1 NS‐1619, 10 mg·kg^−1 NS‐11021.

The record followed here is paper PMC5522996, “Big conductance calcium‐activated potassium channel openers control spasticity without sedation” (British Journal of Pharmacology, 2017).

pEC50: −log10 of the molar value.

T1 sequence (Q12791 whole entry): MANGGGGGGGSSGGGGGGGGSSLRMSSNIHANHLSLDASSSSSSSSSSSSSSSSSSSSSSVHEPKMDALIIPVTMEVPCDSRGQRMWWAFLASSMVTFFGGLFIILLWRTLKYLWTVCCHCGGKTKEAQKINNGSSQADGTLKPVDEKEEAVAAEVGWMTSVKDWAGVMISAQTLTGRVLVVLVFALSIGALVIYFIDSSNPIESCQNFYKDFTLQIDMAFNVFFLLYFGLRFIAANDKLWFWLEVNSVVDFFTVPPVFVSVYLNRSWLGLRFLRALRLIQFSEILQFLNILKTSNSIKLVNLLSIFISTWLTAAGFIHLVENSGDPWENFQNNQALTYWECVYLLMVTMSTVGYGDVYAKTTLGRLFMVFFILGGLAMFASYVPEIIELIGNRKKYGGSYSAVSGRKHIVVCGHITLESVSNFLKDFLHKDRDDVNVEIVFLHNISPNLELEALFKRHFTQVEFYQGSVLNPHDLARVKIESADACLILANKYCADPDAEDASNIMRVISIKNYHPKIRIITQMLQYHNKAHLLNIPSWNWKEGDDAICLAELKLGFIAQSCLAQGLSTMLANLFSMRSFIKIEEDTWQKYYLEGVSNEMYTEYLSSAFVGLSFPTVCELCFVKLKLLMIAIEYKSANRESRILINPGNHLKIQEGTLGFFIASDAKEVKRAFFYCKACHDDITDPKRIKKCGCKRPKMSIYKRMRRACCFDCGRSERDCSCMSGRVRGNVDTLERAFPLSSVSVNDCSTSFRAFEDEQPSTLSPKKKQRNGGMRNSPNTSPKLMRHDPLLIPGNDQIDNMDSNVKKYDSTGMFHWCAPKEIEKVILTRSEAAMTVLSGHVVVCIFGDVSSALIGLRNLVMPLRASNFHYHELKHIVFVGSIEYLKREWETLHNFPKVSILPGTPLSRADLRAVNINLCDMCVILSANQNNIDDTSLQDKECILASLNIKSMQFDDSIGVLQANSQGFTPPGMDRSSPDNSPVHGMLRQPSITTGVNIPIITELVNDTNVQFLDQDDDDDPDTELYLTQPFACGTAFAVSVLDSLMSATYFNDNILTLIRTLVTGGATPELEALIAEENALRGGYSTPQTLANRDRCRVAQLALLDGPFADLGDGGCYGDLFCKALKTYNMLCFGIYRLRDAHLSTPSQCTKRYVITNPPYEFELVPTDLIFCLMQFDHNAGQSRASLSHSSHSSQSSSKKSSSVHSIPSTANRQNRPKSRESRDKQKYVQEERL
T1 sequence (Q86W47 whole entry): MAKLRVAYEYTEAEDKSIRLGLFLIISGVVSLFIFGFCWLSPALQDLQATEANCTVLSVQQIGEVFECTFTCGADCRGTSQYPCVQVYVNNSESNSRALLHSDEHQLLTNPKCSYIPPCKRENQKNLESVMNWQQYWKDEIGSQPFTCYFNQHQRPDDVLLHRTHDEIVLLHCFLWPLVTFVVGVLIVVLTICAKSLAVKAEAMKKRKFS

Consider `COc1ccc(Cl)cc1[C@]1(F)C(=O)Nc2cc(C(F)(F)F)ccc21` [BMS‐204352, reference compound], for which, in series [1] (setting [5]), the Inhibition of spasticity entry is reported as “significantly inhibit spasticity” and the Sedation result is “without causing sedation”.
Consider charybdotoxin, for which, in the series with rat mesenteric artery, the “Effect of the blocker on VSN16R vasorelaxation” value is listed as “significantly inhibited”.
For the molecule `Cc1c(C(=O)c2cccc3ccccc23)c2cccc3c2n1[C@H](CN1CCOCC1)CO3` [R(+)WIN55‐212], the Hypothermia entry in the series on ABH mice [2] (1 mg·kg^−1 i.v., 20 min after administration) is on record as “significant sedative effects”. Besides, the “Hypomotility in open field” value in the series with ABH mice [3] (1 mg·kg^−1 i.v., 30 min after administration) was “significant sedative effects”.
Consider “Apamin: KCa2.2/2.3 (KCNN2/KCNN3) channel antagonist (CNCKAPETALCARRCQQHG)”, for which, in the series with rat mesenteric artery, the “Effect of the blocker on VSN16R vasorelaxation” value was “small inhibitory effect”.
Consider `CCCCCCC(C)(C)c1cc(O)c2c(c1)OC(C)(C)[C@@H]1CC=C(C(=O)O)C[C@@H]21` [CT3, 1′, 1′‐dimethylheptyl‐M8‐tetrahydrocannabinol‐11‐oic acid], for which the Temperature loss in the series with ABH mice [2] (20 min, spastic animals) was determined as 2.3 ± 0.4 °C; with ABH mice [2] (healthy mice) it was 0.0 ± 0.1 °C.
In the case of `O=c1[nH]c2cc(C(F)(F)F)ccc2n1-c1cc(C(F)(F)F)ccc1O` [NS‐1619, reference compound], in series [1] (setting [5]), the Inhibition of spasticity entry was “significantly inhibit spasticity” and the Sedation result is given as “without causing sedation”.
Regarding `NCC(CC(=O)O)c1ccc(Cl)cc1` (stereo not shown) [baclofen, reference compound], the Inhibition of spasticity result in series [1] (5 mg·kg^−1 i.v.) is recorded as “comparable inhibition of spasticity”. Moreover, the “Inhibitory response on repeated dosing” value in series [1] (repeated 5 mg·kg^−1 p.o.) is “inhibitory responses that diminished over time”. For the same molecule, the “Sedation (hypomotility, hypothermia)” value in the series with ABH mice [3] (5 mg·kg^−1 i.v.) is listed as “significant sedation”.
Take `C[C@@H](NC(=O)c1cccc(/C=C\CCCC(=O)N(C)C)c1)C(=O)O` [VSN44R, (Z)‐(3‐(6‐(dimethylamino)‐6‐oxohex‐1‐en‐1‐yl)benzoyl)‐D‐alanine]: in series [1] (5 mg·kg^−1 i.v.), the Inhibition of spasticity result is “could inhibit the spasticity”. Moreover, the negative logarithm of the EC50 (pEC50) (usually the EC50 on a negative log10 scale, so that one unit is a factor of ten) in the series on mouse vas deferens is 9.00. Further, the “Single BKCa channel activity” value at BKCa channel is given as “facilitated single BKCa channel activity”. For the same molecule, the “Plasma level of the named species” value in series [4] was 2.1 ± 0.3 ng/mL.
In the case of `CC(C)(O)[C@H]1O[C@H]2CC[C@@]3(C)[C@@](O)(CC[C@H]4Cc5c([nH]c6ccccc56)[C@@]43C)C2=CC1=O` [paxilline, reference compound], in series [1] (1 mg·kg^−1 i.p.), the “Effect on baseline level of spasticity” value is “did not influence the baseline level of spasticity”. For the same molecule, in series [1] (1 mg·kg^−1 i.p. before 5 mg·kg^−1 p.o. VSN16R), the “Effect of pretreatment on the action of VSN16R” value is given as “completely inhibit the action of VSN16R”.
Turning to `N#Cc1cc2[nH]c(=O)c(=O)[nH]c2cc1[N+](=O)[O-]` [CNQX, reference compound], the “Inhibitory response on repeated dosing” value in series [1] (repeated 25 mg·kg^−1 s.c.) is given as “inhibitory responses that diminished over time”.
In the case of `FC(F)(F)c1cc(NC(=S)Nc2ccc(Br)cc2-c2nn[nH]n2)cc(C(F)(F)F)c1` [NS‐11021, reference compound], in series [1] (setting [5]), the Inhibition of spasticity result was “significantly inhibit spasticity” and the Sedation result is listed as “without causing sedation”.
